The source made the active and inactive calls. No cut-off for these calls is given here.
Key:
[1] = test system: Human immunodeficiency virus; assay: Substrate activity at HIV reverse transcriptase assessed as n+1 band formation incubated for 30 mins in presence of primer/template mixture by primer extension assay based fluorescence analysis
[2] = test system: Human immunodeficiency virus; assay: Substrate activity at HIV reverse transcriptase assessed as n+1 band formation incubated for 30 mins in presence of primer/template mixture and dNTPs by primer extension assay based fluorescence analysis
[3] = test system: Human immunodeficiency virus; assay: Substrate activity at HIV reverse transcriptase assessed as full elongation of primer by measuring n+5 band formation incubated for 30 mins in presence of primer/template mixture and dNTPs by primer extension assay based fluorescence analysis
[4] = test system: Human immunodeficiency virus; assay: Substrate activity at HIV reverse transcriptase assessed as elongation of primer at 97.6 to 12500 uM incubated for 30 mins in presence of primer/template mixture and dNTPs by primer extension assay based fluorescence analysis; conditions: dose 97.6-12500 µM
[5] = test system: Human immunodeficiency virus; assay: Inhibition of HIV reverse transcriptase assessed as inhibition of elongation of primer at 25000 uM incubated for 30 mins in presence of primer/template mixture and dNTPs by primer extension assay based fluorescence analysis
[6] = test system: Human immunodeficiency virus; assay: Substrate activity at HIV reverse transcriptase assessed as n+1 band formation at 25000 uM incubated for 30 mins in presence of primer/template mixture and dNTPs by primer extension assay based fluorescence analysis
[7] = test system: Human immunodeficiency virus; assay: Inhibition of HIV reverse transcriptase assessed as inhibition of elongation of primer at 25000 uM incubated for 30 mins in presence of primer/template mixture and 250 uM dNTPs by primer extension assay based fluorescence analysis
[8] = test system: Human immunodeficiency virus; assay: Substrate activity at HIV reverse transcriptase assessed as elongation of primer at 97.6 to 12500 uM incubated for 30 mins in presence of primer/template mixture and 250 uM dNTPs by primer extension assay based fluorescence analysis; conditions: dose 97.6-12500 µM
[9] = test system: Human immunodeficiency virus; assay: Substrate activity at HIV reverse transcriptase assessed as n+1 band formation at 97.6 to 12500 uM incubated for 30 mins in presence of primer/template mixture and 250 uM dNTPs by primer extension assay based fluorescence analysis; conditions: dose 97.6-12500 µM
[10] = biological target: T1, DNA polymerase subunit gamma-1 (Homo sapiens) (UniProt P54098); assay: Substrate activity at human DNA polymerase gamma assessed as elongation of primer at 250 uM incubated for 120 mins in presence of primer/template mixture by primer extension assay based fluorescence analysis
T1 sequence (whole entry): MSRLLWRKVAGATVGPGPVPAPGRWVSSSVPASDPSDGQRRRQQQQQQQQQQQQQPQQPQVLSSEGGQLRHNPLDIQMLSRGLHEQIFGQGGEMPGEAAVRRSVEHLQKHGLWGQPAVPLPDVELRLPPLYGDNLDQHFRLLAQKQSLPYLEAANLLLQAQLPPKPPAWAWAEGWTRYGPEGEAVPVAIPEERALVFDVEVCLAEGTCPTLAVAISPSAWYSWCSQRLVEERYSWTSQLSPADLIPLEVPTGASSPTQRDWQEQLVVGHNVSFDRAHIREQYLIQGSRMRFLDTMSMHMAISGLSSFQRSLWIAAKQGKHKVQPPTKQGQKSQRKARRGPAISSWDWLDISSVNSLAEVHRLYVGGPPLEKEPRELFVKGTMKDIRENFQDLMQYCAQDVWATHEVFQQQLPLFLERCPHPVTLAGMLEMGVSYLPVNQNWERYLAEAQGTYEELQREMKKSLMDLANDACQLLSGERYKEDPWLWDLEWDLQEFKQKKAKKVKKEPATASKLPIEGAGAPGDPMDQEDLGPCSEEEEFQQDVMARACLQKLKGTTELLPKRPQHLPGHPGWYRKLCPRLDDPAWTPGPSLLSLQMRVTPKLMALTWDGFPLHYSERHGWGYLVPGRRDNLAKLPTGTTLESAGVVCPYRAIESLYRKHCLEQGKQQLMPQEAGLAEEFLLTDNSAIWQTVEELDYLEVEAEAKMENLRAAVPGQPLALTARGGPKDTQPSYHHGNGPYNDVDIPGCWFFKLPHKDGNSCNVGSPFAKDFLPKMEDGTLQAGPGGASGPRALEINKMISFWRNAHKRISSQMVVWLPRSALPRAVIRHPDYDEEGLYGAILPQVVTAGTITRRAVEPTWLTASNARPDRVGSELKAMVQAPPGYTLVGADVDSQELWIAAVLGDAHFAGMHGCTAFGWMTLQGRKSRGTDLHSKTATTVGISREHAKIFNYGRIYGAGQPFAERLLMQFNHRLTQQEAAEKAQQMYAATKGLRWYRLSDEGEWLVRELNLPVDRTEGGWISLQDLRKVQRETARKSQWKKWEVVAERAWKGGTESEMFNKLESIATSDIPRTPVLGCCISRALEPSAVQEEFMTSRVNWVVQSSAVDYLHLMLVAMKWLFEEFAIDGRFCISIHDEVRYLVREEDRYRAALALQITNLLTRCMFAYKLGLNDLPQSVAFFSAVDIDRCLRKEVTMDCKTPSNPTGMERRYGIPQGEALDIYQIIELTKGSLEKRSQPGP

[11] = biological target: T1, DNA polymerase subunit gamma-1 (Homo sapiens); assay: Substrate activity at human DNA polymerase gamma assessed as elongation of primer at 250 uM incubated for 120 mins in presence of primer/template mixture and dNTPs by primer extension assay based fluorescence analysis
[12] = Prodrug conversion of the compound in phosphate buffer saline assessed as (R)-9-(2-(phosphonomethoxy)propyl)adenine formation by measuring half life at pH 7.3 by RP18-HPLC analysis; type: ADME
[13] = Prodrug conversion of the compound in phosphate buffer saline assessed as Tenofovir monophosphate formation by measuring half life at pH 7.3 by RP18-HPLC analysis; type: ADME
[14] = Prodrug conversion of the compound in phosphate buffer saline assessed as (R)-9-(2-(phosphonomethoxy)propyl)adenine formation by measuring half life in presence of pig liver esterase at pH 7.3 by RP18-HPLC analysis; type: ADME, Sus scrofa
[15] = Prodrug conversion of the compound in phosphate buffer saline assessed as Tenofovir monophosphate by measuring half life in presence of pig liver esterase at pH 7.3 by RP18-HPLC analysis; type: ADME, Sus scrofa
[16] = Half life of the compound in human CEM/0 cell extracts by RP18-HPLC analysis; type: ADME, CCRF-CEM
[17] = Lipophilicity of the compound assessed as retention time by RP-HPLC analysis; type: physicochemical
[18] = test system: Human immunodeficiency virus 1; assay: Antiviral activity against HIV-1 HE infected in wild type human CEM/0 cells assessed as inhibition of virus-induced giant cell formation incubated for 4 to 5 days by light microscopy; type: functional, organism-based; conditions: Human immunodeficiency virus 1, HE, CCRF-CEM
[19] = test system: Human immunodeficiency virus 2; assay: Antiviral activity against HIV-2 ROD infected in wild type human CEM/0 cells assessed as inhibition of virus-induced giant cell formation incubated for 4 to 5 days by light microscopy; type: functional, organism-based; conditions: Human immunodeficiency virus 2, ROD, CCRF-CEM
[20] = test system: Human immunodeficiency virus 2; assay: Antiviral activity against HIV-2 ROD infected in thymidine kinase deficient human CEM cells assessed as inhibition of virus-induced giant cell formation incubated for 4 to 5 days by light microscopy; type: functional, organism-based; conditions: Human immunodeficiency virus 2, ROD, CCRF-CEM
[21] = Cytotoxicity against human CEM cells assessed as inhibition of cell proliferation; type: toxicity, cell-based, CCRF-CEM
[22] = Selectivity index, ratio of CC50 for cytotoxicity against human CEM cells to EC50 for antiviral activity against HIV-2 ROD infected in thymidine kinase deficient human CEM cells; type: toxicity, cell-based; conditions: read-out: Ratio CC50/EC50
[23] = test system: Human immunodeficiency virus 2; assay: Potency index, ratio of Tenofovir EC50 to test compound EC50 for antiviral activity against HIV-2 ROD infected in thymidine kinase deficient human CEM cells; type: functional
[24] = test system: Human immunodeficiency virus; assay: Substrate activity at HIV reverse transcriptase assessed as n+1 band formation incubated for 30 mins in presence of primer/template mixture and 2.6 fold excess of dNTPs by primer extension assay based fluorescence analysis
[25] = test system: Human immunodeficiency virus 1; assay: Potency index, ratio of Tenofovir EC50 to test compound EC50 for antiviral activity against HIV-1 HE infected in wild type human CEM/0 cells; type: functional
[26] = test system: Human immunodeficiency virus 2; assay: Potency index, ratio of Tenofovir EC50 to test compound EC50 for antiviral activity against HIV-2 ROD infected in wild type human CEM/0 cells; type: functional

Activity [1]	Activity [2]	Activity [3]	inhibition [5]	inhibition [7]	Activity [10]	Activity [11]	t1/2 [12] [h]	t1/2 [14] [min]	half-life [16] [min]	Retention_time [17] [min]	EC50 [18] [nM]	EC50 [19] [nM]	EC50 [20] [nM]	Structure (SMILES)	CC50 [21] [µM]	selectivity ratio [22]	also measured
Active	Active	Active	Active	Active	inactive	Active								C[C@H](Cn1cnc2c(N)ncnc21)OCP(=O)(O)OP(=O)(O)OP(=O)(O)O			Activity [4]: Active; Activity [6]: inactive; Activity [8]: Active; Activity [9]: Active
Active	inactive	Active	Active	Active	inactive	Active	> 200	> 3000	> 480	14.2	360	700	27	CCCCCCCCCCCCCCCCCCOP(=O)(O)OP(=O)(O)OP(=O)(O)CO[C@H](C)Cn1cnc2c(N)ncnc21	> 100	> 3700	Ratio EC50 [23]: 32; Activity [24]: Active
							51	41	126	17.5	150	76	58	CCCCCCCCCCCCCCCCCCOP(=O)(OCc1ccc(OC(=O)CCCC)cc1)OP(=O)(O)OP(=O)(O)CO[C@H](C)Cn1cnc2c(N)ncnc21 (stereo partly specified)	57.2	986	Ratio EC50 [25]: 13; Ratio EC50 [26]: 23

Structure (SMILES)	Activity [1]	Activity [2]	Activity [3]	inhibition [5]	inhibition [7]	Activity [10]	Activity [11]	t1/2 [12] [h]	t1/2 [14] [min]	half-life [16] [min]	Retention_time [17] [min]	EC50 [18] [nM]	EC50 [19] [nM]	EC50 [20] [nM]	CC50 [21] [µM]	selectivity ratio [22]	also measured
CCCCCCCCC(=O)Oc1ccc(COOP(=O)(O)OP(=O)(O)OP(=O)(O)CO[C@H](C)Cn2cnc3c(N)ncnc32)cc1								9	0.16	58.2	16.4	1130	350	560	48.9	87	t1/2 [13]: > 200 h; t1/2 [15]: 0.06 min

From ChEMBL document CHEMBL5518164, “Membrane-permeable tenofovir-di- and monophosphate analogues” (Eur J Med Chem, 2024)
